Data reported in patent US12721833B2, “Small molecule anticancer agents, combinations and uses thereof” (University of Florida Research Foundation, Incorporated, priority 2020, dated 2026).
One block for each compound: values may come before it.

What was measured:
breast cancer cell lines = experiment: Cell viability assays in breast cancer cell lines (FIG. 2C, FIG. 3B); assay type: cell-based; conditions: increasing concentrations
Description: (§1) MTT cell viability is evaluated using MTT (3-(4,5-dimethylthiazol-2-yl)-2,5-diphenyltetrazolium bromide) assays carried out based on the manufacturer's instructions (kit CGD1, Sigma-Aldrich, St. Louis, MO).

EGFR and HER2 = EGFR and HER2 levels in patient-derived breast cancer cells (FIG. 4A); assay type: cell-based; conditions: patient-derived cells from a TNBC (HCI-001) and a drug resistant, metastatic, HER2+ breast cancer (HCI-012/MLR)
AGR2 = target: T1, AGR2 (Homo sapiens, UniProt O95994); experiment: Protein thiolate reactivity assay: biotin-tagged DDA binding to AGR2, with competitors; conditions: competition with DDAs
T1 sequence (O95994 21-175): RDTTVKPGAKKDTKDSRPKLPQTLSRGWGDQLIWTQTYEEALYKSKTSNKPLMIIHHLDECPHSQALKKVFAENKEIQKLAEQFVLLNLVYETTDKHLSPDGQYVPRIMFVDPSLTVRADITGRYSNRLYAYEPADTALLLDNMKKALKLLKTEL
Description: To measure DDA and NSC322072 covalent binding to AGR2, purified, recombinant AGR2 is incubated with a biotin-tagged DDA compound for 1 h at 37° C. in the presence or absence of non-biotinylated competitor DDAs or NSC322072. Reaction mixtures are boiled with SDS-PAGE sample buffer supplemented with 100 mM N-ethylmaleimide for ca. 10 minutes to block free thiolate groups remaining after the reaction. Conjugation of AGR2 by DDAs is measured by evaluating AGR2 modification in the modified immunoblot assay in Example 16.
Samples from the biotin-DDA/AGR2 reactions (Example 14) are resolved by non-reducing SDS-PAGE and transferred to nitrocellulose membranes. The membranes are blocked and analyzed by immunoblot with antibodies to AGR2 to verify addition of AGR2 protein to the assays. Anti-AGR2 primary antibody is detected with an Alkaline Phosphatase-conjugated secondary antibody. Separate, replicate membranes are probed with Streptavidin-Alkaline phosphatase. […] Both the AGR2 immunoblots and the Streptavidin-Alkaline phosphatase blots are detected using the standard Alkaline Phosphatase detection compounds, Bromo-chloro-indoyl Phosphate (BCIP)/Nitroblue Tetrazolium (NBT).

[1] = system: DR4, DR5, HER3 oligomerization and Akt phosphorylation; experiment: Immunoblot analysis in MDA-MB-468 TNBC and BT474 HER2+ lines (FIG. 2B); assay type: cell-based; conditions: the two compounds similar
[2] = system: DR4, DR5, and EGFR oligomerization; experiment: Immunoblot with inhibitors of ER acetyltransferases (FIG. 3C); assay type: cell-based
MDA-MB-468 cells = experiment: MTT cell viability assay; assay type: cell-based; conditions: for potency of cytotoxicity relative to tcyDTDO: MDA-MB-468 breast cancer cells, compared with tcyDTDO; for effect on cell viability: MDA-MB-468 cells, increasing concentrations (FIG. 7)
Description: as §1

[3] = system: DR4, DR5, EGFR, GRP78, AGR2, XBP1s in MDA-MB-468 cells; experiment: Immunoblots in MDA-MB-468 cells (FIG. 9, FIG. 10); assay type: cell-based; conditions: for DR5 expression / ER-stress induced proteins GRP78 and AGR2: MDA-MB-468 cells (FIG. 9); for potency vs tcyDTDO in upregulating and oligomerizing DR4 and DR5 and increasing XBP1s, GRP78, and AGR2 / disulfide bond-dependent oligomerization of DR4, DR5, and EGFR: MDA-MB-468 cells; for potency vs tcyDTDO in upregulating and oligomerizing DR4 and DR5 and increasing XBP1s, GRP78, and AGR2: 2.5 mM (FIG. 10); for disulfide bond-dependent oligomerization of DR4, DR5, and EGFR: at the concentrations that induce cancer cell death (FIG. 9)
[4] = system: human breast tumors growing in rodent models; conditions: cited from earlier work
pancreatic PDX tumors = experiment: Treatment of mice bearing pancreatic PDX tumors (FIG. 4B); assay type: in vivo; conditions: separation of cancer cells from stroma and pancreatic cancer cell death

binding site on AGR2 (competition experiments) (AGR2): bind to the same site on AGR2
Compound: CCCCCC(C[N+]1(C)CCOCC1)C(=O)/C=C/c1ccccc1.[Br-] (stereo not drawn) [NSC322072]
effect on cell viability (breast cancer cell lines): decrease the viability of three different breast cancer cell lines in a concentration-dependent manner
EGFR and HER2 levels (EGFR and HER2): decrease EGFR and HER2 levels
Akt phosphorylation [1]: decrease Akt phosphorylation
DR4, DR5, and HER3 oligomerization [1]: increase DR4, DR5, and HER3 oligomerization

Compound: CNC(=O)Nc1ccc2c(c1)CC[C@@]21OC(=O)N(CC(=O)N(Cc2ccc(F)cc2)[C@@H](C)C(F)(F)F)C1=O [A-485]
DR4, DR5, and EGFR oligomerization [2]: without effect

Compound: O=S1(=O)CC2CC(F)C(F)CC2CS1 (racemic) [dFtcyDTDO, (4aS,6S,7S,8aS)- and (4aR,6R,7R,8aR)-6,7-Difluorooctahydrobenzo[d][1,2]dithiine 2,2-dioxide]
potency of cytotoxicity relative to tcyDTDO (MDA-MB-468 cells): 2 fold
effect on cell viability (MDA-MB-468 cells): decrease the viability of the cancer cell lines in a concentration-dependent manner
DR5 expression [3]: upregulate DR5
ER-stress induced proteins GRP78 and AGR2 [3]: increase the ER-stress induced proteins GRP78 and AGR2
potency vs tcyDTDO in upregulating and oligomerizing DR4 and DR5 and increasing XBP1s, GRP78, and AGR2 [3]: more potent than tcyDTDO
disulfide bond-dependent oligomerization of DR4, DR5, and EGFR [3]: induce disulfide bond-dependent oligomerization of DR4, DR5, and EGFR

Compound: O=S1(=O)CC2CCCCC2CS1 (stereo not drawn) [TcyDTDO]
in vivo anticancer activity [4]: established in vivo anticancer activity
effect on pancreatic PDX tumors (H&E) (pancreatic PDX tumors): causes disintegration of the tumors

Compound: CO[C@H]1C[C@@H]2CS(=O)(=O)SC[C@H]2C[C@@H]1OC (racemic) [DMtcyDTDO, (4aS,6S,7S,8aS)- and (4aR,6R,7R,8aR)-6,7-Dimethoxyoctahydrobenzo [d][1,2]dithiine 2,2-dioxide]
EGFR and HER2 levels (EGFR and HER2): decrease EGFR and HER2 levels
Akt phosphorylation [1]: decrease Akt phosphorylation
DR4, DR5, and HER3 oligomerization [1]: increase DR4, DR5, and HER3 oligomerization
potency relative to TcyDTDO (MDA-MB-468 cells; FIG. 1B legend, test not stated there): twice as potent as TcyDTDO
potency of cytotoxicity relative to tcyDTDO (MDA-MB-468 cells): 2 fold
effect on cell viability (MDA-MB-468 cells): decrease the viability of the cancer cell lines in a concentration-dependent manner
DR5 expression [3]: upregulate DR5
ER-stress induced proteins GRP78 and AGR2 [3]: increase the ER-stress induced proteins GRP78 and AGR2
potency vs tcyDTDO in upregulating and oligomerizing DR4 and DR5 and increasing XBP1s, GRP78, and AGR2 [3]: more potent than tcyDTDO
disulfide bond-dependent oligomerization of DR4, DR5, and EGFR [3]: induce disulfide bond-dependent oligomerization of DR4, DR5, and EGFR
